Assays:
[1] = test system: Sporosarcina pasteurii—CIP 66.21 Pasteur; assay: Degree of attachment in sand columns, chicory and/or divalent ion salt added before injection (Example 4); type: cell-based; conditions: 10 mM Ca(NO3)2 added to the culture medium; 20° C.
Description: The columns were prepared in accordance with Example 3.
The bacteria (Sporosarcina pasteurii—CIP 66.21 Pasteur) were cultured in a culture medium (1 L of laboratory water) containing 10 g of yeast extract, 3 g of NaCl, 2.4 g of urea, 0.1 g of MgCl2 and 0.0128 g of NiCl2. When the bacteria are at the end of the exponential phase, the following are added to the culture medium: • either a source of calcium (10 mM Ca(NO3)2); • or chicory in a proportion of 4 or 8 g/L; • or a source of calcium (10 mM Ca(NO3)2) and chicory in a proportion of 4 or 8 g/L.
The whole was left to stir for one hour before being injected into the columns.
The injection conditions are identical to those of Example 3. All the experiments were carried out at 20° C.
The cumulative column inlet and outlet OD values are compared and expressed in the form of percentage loss of OD, which represents the degree of attachment of the bacteria in the column. FIG. 5 represents the degrees of attachment of the bacteria stimulated by the addition of chicory, of calcium salt or of both to the culture medium before injection.
The protocol is identical to that of Example 4.1, with the calcium ions (Ca(NO3)2) being replaced with magnesium ions (Mg(NO3)2).

[2] = test system: S. pasteurii (CIP 66.21 Pasteur); assay: Screening for sugars that can be assimilated, API strips (API 20 E and API 50CH); type: cell-based, Sporosarcina pasteurii; conditions: API strip analysis
From the text: The first step was to carry out a screening of the various sugars that exist, in order to identify that or those which is (are) assimilable and which stimulate EPS synthesis in Sporosarcina pasteurii, preferably without inhibiting urease synthesis.
For this, two types of API strips were used: API 20 E and API 50CH. These tests are in the form of microtubes containing dehydrated substrates and which are inoculated with a bacterial suspension.

[3] = test system: Sporosarcina pasteurii; assay: Culture with inulin/chicory replacing part of the yeast extract: attachment to glassware, growth, enzymatic activity; type: cell-based
From the text: In order to determine the amount of inulin necessary in order to act on the synthesis of urease and on the production of EPS in Sporosarcina pasteurii, a part of the nitrogenous carbon source (yeast extract) was replaced with chicory.

[4] = test system: Sporosarcina pasteurri—CIP 66.21 Pasteur; assay: Degree of attachment of bacteria to Fontainebleau sand columns, chicory in the culture medium (Example 3); type: cell-based, Sporosarcina pasteurii; conditions: media with versus without chicory
Description: The chicory used is powdered extract of freeze-dried chicory, derived from the root of Cichorium intibus and sold under the trade name “Chicorée soluble Leroux”. For this, two tests were carried out in parallel on columns:
The columns were made up of a PVC tube 63 mm in diameter and 200 mm in height, positioned between two PVC bases. One centimeter of filter sand was placed at the two ends and the whole of the column was made up with Fontainebleau sand tamped down under water by tapping. The Fontainebleau sand is the NE34-grade sand from SIFRACO. The injections were carried out from top to bottom. […]
Monitoring of the OD at the column outlet makes it possible to know the degree of attachment of the bacteria to the Fontainebleau sand. A calibration OD measurement was carried out beforehand on each of the media from which the bacteria were extracted in order to be free of differences in reading related to the medium itself. […]
Since the column porosity volume is 250 mL, the detection of the first bacteria at the column outlet is carried out after having injected 250 mL of culture medium. The graphic representation of the cumulative OD at the column inlet and at the column outlet makes it possible to readily visualize the degree of attachment of the bacteria to the granular substrate. […] The outlet ODs are also measured every minute. […]

Row | Molecule | Degree of attachment (%) [1] [%] | carbon source that can be assimilated by Sporosarcina pasteurii [2] | adhesion of the bacteria to the laboratory glassware through the production of EPS [3] | growth of the bacteria [3] | bacterial growth (inlet OD) [4]
1 | O=[N+]([O-])[O-].O=[N+]([O-])[O-].[Ca+2] [Ca(NO3)2] | 49.5 |  |  |  | 
2 | Inulin |  | can be assimilated | demonstrated adhesion | more rapid | greater

Reference: patent US8210776B2, “Calcification method using calcifying bacteria” (Soletanche Freyssinet, priority 2007, dated 2012)
